Data as given in PubChem BioAssay AID1259407 (Chemical Carcinogenesis Research Information System (CCRIS), 2018).
Activity calls are given as the source filed them. How the calls were made is not given here.

Test system: CCRIS mutagenicity, Ames/micronucleus/aberration tests
Assay: CCRIS mutagenicity studies
[1] = Test System: AMES SALMONELLA TYPHIMURIUM, Strain/Indicator: TA98, Metabolic Activation: HAMSTER, LIVER, S-9, Method: PREINCUBATION (PRIVAL METHOD)
[2] = Test System: AMES SALMONELLA TYPHIMURIUM, Strain/Indicator: TA98, Metabolic Activation: NONE, Method: STANDARD PLATE
[3] = Test System: AMES SALMONELLA TYPHIMURIUM, Strain/Indicator: TA100, Metabolic Activation: NONE, Method: STANDARD PLATE
[4] = Test System: Mouse lymphoma, Strain/Indicator: L5178Y (tk+/tk-), Metabolic Activation: None, Method: Suspension/plate
[5] = Test System: Mouse lymphoma, Strain/Indicator: L5178Y (tk+/tk-), Metabolic Activation: Rat, Liver, S-9, Aroclor 1254, Method: Suspension/plate
[6] = Test System: AMES SALMONELLA TYPHIMURIUM, Strain/Indicator: TA100, Metabolic Activation: S-9, Method: STANDARD PLATE
[7] = Test System: AMES SALMONELLA TYPHIMURIUM, Strain/Indicator: TA104, Metabolic Activation: NONE, Method: STANDARD PLATE
[8] = Test System: AMES SALMONELLA TYPHIMURIUM, Strain/Indicator: TA1537, Metabolic Activation: NONE, Method: STANDARD PLATE
[9] = Test System: AMES SALMONELLA TYPHIMURIUM, Strain/Indicator: TA1537, Metabolic Activation: S-9, Method: STANDARD PLATE
[10] = Test System: AMES SALMONELLA TYPHIMURIUM, Strain/Indicator: TA1538, Metabolic Activation: NONE, Method: STANDARD PLATE
[11] = Test System: AMES SALMONELLA TYPHIMURIUM, Strain/Indicator: TA1535, Metabolic Activation: NONE, Method: STANDARD PLATE
[12] = Test System: AMES SALMONELLA TYPHIMURIUM, Strain/Indicator: TA100, Metabolic Activation: RAT, LIVER, S-9, AROCLOR 1254, Method: STANDARD PLATE

In the case of `Cc1ccc(N=Nc2c(O)ccc3ccccc23)c(C)c1`, the mutagenic call (Test System: AMES SALMONELLA TYPHIMURIUM, Strain/Indicator: TA98, Metabolic Activation: HAMSTER, LIVER, S-9, AROCLOR 1254 (5,20%), Method: PREINCUBATION) is reported as “active; positive”, the mutagenic call (Test System: AMES SALMONELLA TYPHIMURIUM, Strain/Indicator: TA98, Metabolic Activation: HAMSTER, LIVER, S-9, AROCLOR 1254, Method: STANDARD PLATE) is reported as “active; positive” and the mutagenic call [1] is reported as “active; positive”. For the same compound, the mutagenic call [2] was “inactive; negative”, the mutagenic call (Test System: AMES SALMONELLA TYPHIMURIUM, Strain/Indicator: TA98, Metabolic Activation: RAT, BLADDER, S-9, PCB, Method: FLUCTUATION TEST) was “inactive; negative” and the mutagenic call (Test System: AMES SALMONELLA TYPHIMURIUM, Strain/Indicator: TA98, Metabolic Activation: RAT, LIVER, S-9, AROCLOR 1254, HAMSTER, LIVER, S-9, AROCLOR 1254, Method: STANDARD PLATE) was “active; positive”. For the same compound, the mutagenic call (Test System: AMES SALMONELLA TYPHIMURIUM, Strain/Indicator: TA98, Metabolic Activation: RAT, LIVER, S-9, Method: STANDARD PLATE) was “inactive; negative”, the mutagenic call (Test System: AMES SALMONELLA TYPHIMURIUM, Strain/Indicator: TA100, Metabolic Activation: HAMSTER, LIVER, S-9, Method: PREINCUBATION (PRIVAL METHOD)) was “active; positive” and the mutagenic call [3] was “inactive; negative”. For the same compound, the mutagenic call (Test System: AMES SALMONELLA TYPHIMURIUM, Strain/Indicator: TA100, Metabolic Activation: RAT, BLADDER, S-9, PCB, Method: FLUCTUATION TEST) was “inactive; negative”, the mutagenic call (Test System: AMES SALMONELLA TYPHIMURIUM, Strain/Indicator: TA100, Metabolic Activation: RAT, LIVER, S-9, Method: STANDARD PLATE) was “inactive; negative” and the mutagenic call (Test System: AMES SALMONELLA TYPHIMURIUM, Strain/Indicator: TA1538, Metabolic Activation: RAT, LIVER, S-9, AROCLOR 1254, HAMSTER, LIVER, S-9, AROCLOR 1254, Method: STANDARD PLATE) was “active; positive”. The mutagenic call [4] was “inactive; negative” and the mutagenic call [5] was “inactive; negative”.
`CCCCN(CC(C)=O)N=O` was tested, and the mutagenic call (Test System: AMES SALMONELLA TYPHIMURIUM, Strain/Indicator: TA1535, Metabolic Activation: RAT, LIVER, S-9, KC500 OR PHENOBARBITAL, Method: LIQUID SUSPENSION) was “active; positive”.
`CC(C)OCC1CO1` (configuration not stated) was tested, and the mutagenic call (Test System: AMES SALMONELLA TYPHIMURIUM, Strain/Indicator: TA100, Metabolic Activation: HAMSTER, LIVER, S-9, AROCLOR 1254 (10%), Method: PREINCUBATION) was “active; positive”, the mutagenic call (Test System: AMES SALMONELLA TYPHIMURIUM, Strain/Indicator: TA100, Metabolic Activation: NONE, Method: PREINCUBATION) was “active; positive” and the mutagenic call (Test System: AMES SALMONELLA TYPHIMURIUM, Strain/Indicator: TA100, Metabolic Activation: RAT, LIVER, S-9, AROCLOR 1254 (10%), Method: PREINCUBATION) was “active; positive”. The mutagenic call (Test System: AMES SALMONELLA TYPHIMURIUM, Strain/Indicator: TA1535, Metabolic Activation: HAMSTER, LIVER, S-9, AROCLOR 1254 (10%), Method: PREINCUBATION) was “active; positive”, the mutagenic call (Test System: AMES SALMONELLA TYPHIMURIUM, Strain/Indicator: TA1535, Metabolic Activation: NONE, Method: PREINCUBATION) was “active; positive” and the mutagenic call (Test System: AMES SALMONELLA TYPHIMURIUM, Strain/Indicator: TA1535, Metabolic Activation: RAT, LIVER, S-9, AROCLOR 1254 (10%), Method: PREINCUBATION) was “active; positive”.
With `C#CCOCCn1cc[n+](C)c1/C=N/O` the mutagenic call (Test System: AMES SALMONELLA TYPHIMURIUM, Strain/Indicator: TA97, Metabolic Activation: NONE, Method: STANDARD PLATE) was “inactive; negative”, the mutagenic call (Test System: AMES SALMONELLA TYPHIMURIUM, Strain/Indicator: TA97, Metabolic Activation: S-9, Method: STANDARD PLATE) was “inactive; negative” and the mutagenic call [3] was “inactive; negative”. The mutagenic call [6] was “inactive; negative”, the mutagenic call [7] was “inactive; negative” and the mutagenic call (Test System: AMES SALMONELLA TYPHIMURIUM, Strain/Indicator: TA104, Metabolic Activation: S-9, Method: STANDARD PLATE) was “inactive; negative”. The mutagenic call [8] was “inactive; negative”, the mutagenic call [9] was “inactive; negative” and the mutagenic call [10] was “inactive; negative”. For the same compound, the mutagenic call (Test System: AMES SALMONELLA TYPHIMURIUM, Strain/Indicator: TA1538, Metabolic Activation: S-9, Method: STANDARD PLATE) was “inactive; negative”.
`CNC(=O)Oc1cccc2c1OC(C)(C)C2` was tested, and the mutagenic call (End Point: CHROMOSOMAL ABERRATIONS, Test System: BONE MARROW, Species: MOUSE, Strain/Sex: SWISS/MALE, Route: GAVAGE) was “active; positive (structural changes)”, the mutagenic call (End Point: IN VIVO MICRONUCLEUS, Test System: BONE MARROW POLYCHROMATIC ERYTHROCYTES, Species: MOUSE, Strain/Sex: KM/MALE, FEMALE, Route: IP INJECTION) was “inactive; negative” and the mutagenic call (Test System: AMES SALMONELLA TYPHIMURIUM, Strain/Indicator: TA97A, Metabolic Activation: NONE, Method: STANDARD PLATE) was “inactive; negative”. The mutagenic call [2] was “inactive; negative”, the mutagenic call [3] was “inactive; negative” and the mutagenic call (Test System: AMES SALMONELLA TYPHIMURIUM, Strain/Indicator: TA102, Metabolic Activation: NONE, Method: STANDARD PLATE) was “inactive; negative”. For the same compound, the mutagenic call [7] was “inactive; negative” and the mutagenic call [11] was “inactive; negative”.
In the case of `CN(C)CCNC(=O)c1cccc2nc3ccccc3nc12`, the mutagenic call [8] is reported as “active; positive”.
`c1ccc2c(c1)cnc1ccccc12` was tested, and the mutagenic call (Test System: AMES SALMONELLA TYPHIMURIUM, Strain/Indicator: TA98, Metabolic Activation: RAT, LIVER, S-9, PCB, Method: STANDARD PLATE) was “active; positive” and the mutagenic call (Test System: AMES SALMONELLA TYPHIMURIUM, Strain/Indicator: TA100, Metabolic Activation: RAT, LIVER, S-9, PCB, Method: STANDARD PLATE) was “active; positive”.
In the case of `O=C(CCl)Nc1snc2cc(Cl)ccc12`, the mutagenic call [2] is reported as “inactive; negative”, the mutagenic call (Test System: AMES SALMONELLA TYPHIMURIUM, Strain/Indicator: TA98, Metabolic Activation: S-9, Method: STANDARD PLATE) is reported as “active; positive” and the mutagenic call [3] is reported as “active; positive”. The mutagenic call [6] was “active; positive”, the mutagenic call [11] was “inactive; negative” and the mutagenic call (Test System: AMES SALMONELLA TYPHIMURIUM, Strain/Indicator: TA1535, Metabolic Activation: S-9, Method: STANDARD PLATE) was “inactive; negative”. The mutagenic call [8] was “active; positive” and the mutagenic call [9] was “active; positive”.
`CCCn1cc2c3c(cccc31)C1C[C@@H](C)CN(C#N)[C@@H]1C2` (some centres not stated) was tested, and the mutagenic call [12] was “active; positive”.
For `N=C1C=CC2=C(S(=O)(=O)O)C=CC(=O)C2=C1NNc1ccc(-c2ccc(NNC3=C4C(=O)C=CC(S(=O)(=O)O)=C4C=CC3=N)cc2)cc1`, the mutagenic call [1] was “active; positive”.
With `CC/C=C/C=C/C=C/C=C/C=O` the mutagenic call [2] was “inactive; negative”, the mutagenic call [3] was “inactive; negative” and the mutagenic call [7] was “inactive; negative”.
In the case of `O=C1/C(=N\Nc2ccc(/C=C/c3ccc(N/N=C4/C=C(S(=O)(=O)O)c5cccnc5C4=O)cc3S(=O)(=O)O)c(S(=O)(=O)O)c2)C=C(S(=O)(=O)O)c2cccnc21`, the mutagenic call [4] is reported as “inactive; negative” and the mutagenic call [5] is reported as “inactive; negative”.
`CC(C)N(C(=O)SC/C(Cl)=C/Cl)C(C)C` was tested, and the mutagenic call [2] was “inactive; negative”, the mutagenic call (Test System: AMES SALMONELLA TYPHIMURIUM, Strain/Indicator: TA98, Metabolic Activation: RAT, LIVER, S-9, AROCLOR 1254, Method: STANDARD PLATE) was “active; positive” and the mutagenic call [3] was “inactive; negative”. For the same compound, the mutagenic call [12] was “active; positive”, the mutagenic call [11] was “inactive; negative” and the mutagenic call (Test System: AMES SALMONELLA TYPHIMURIUM, Strain/Indicator: TA1535, Metabolic Activation: RAT, LIVER, S-9, AROCLOR 1254, Method: STANDARD PLATE) was “active; positive”. For the same compound, the mutagenic call [8] was “inactive; negative”, the mutagenic call (Test System: AMES SALMONELLA TYPHIMURIUM, Strain/Indicator: TA1537, Metabolic Activation: RAT, LIVER, S-9, AROCLOR 1254, Method: STANDARD PLATE) was “inactive; negative” and the mutagenic call [10] was “inactive; negative”. For the same compound, the mutagenic call (Test System: AMES SALMONELLA TYPHIMURIUM, Strain/Indicator: TA1538, Metabolic Activation: RAT, LIVER, S-9, AROCLOR 1254, Method: STANDARD PLATE) was “inactive; negative”.
